Experimental data as given in PubChem BioAssay (NCI).
Where “and” joins values, the source holds several entries; their conditions need not be identical. Identical values can stand only once.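 How tested: cells in 96-well plates exposed to compound for 48 hours at five concentrations. GI50: concentration for 50% inhibition of growth. TGI: total growth inhibition.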

Assays:
Experiment in all cases: DTP human tumour cell line panel, 48 h
SF-539 CNS = tested on: SF-539 CNS
SW-620 colon = tested on: SW-620 colon
DU-145 prostate = tested on: DU-145 prostate
UACC-62 melanoma = tested on: UACC-62 melanoma
K-562 leukemia = tested on: K-562 leukemia
RPMI-8226 leukemia = tested on: RPMI-8226 leukemia
M14 melanoma = tested on: M14 melanoma
NCI-H460 lung = tested on: NCI-H460 lung
MCF7 breast = tested on: MCF7 breast
EKVX NSCLC = tested on: EKVX NSCLC

SMILES | GI50 (SF-539 CNS) | TGI (SF-539 CNS) [µM] | GI50 (SW-620 colon) | TGI (SW-620 colon) [µM] | GI50 (DU-145 prostate) | TGI (DU-145 prostate) | GI50 (UACC-62 melanoma) | TGI (UACC-62 melanoma) | GI50 (K-562 leukemia) [µM] | TGI (K-562 leukemia) | GI50 (RPMI-8226 leukemia) | TGI (RPMI-8226 leukemia) [µM] | GI50 (M14 melanoma) | TGI (M14 melanoma) [µM] | GI50 (NCI-H460 lung) [µM] | TGI (NCI-H460 lung) [µM] | GI50 (MCF7 breast) | TGI (MCF7 breast) | GI50 (EKVX NSCLC) | TGI (EKVX NSCLC) [µM]
C#Cc1cccc(NC(=O)Nc2ccccc2NC(=O)CCl)c1 | 13.8 µM | 32.4 | 19.3 µM | 45.2 | 28.9 µM | > 82.5 µM | 13.8 µM | 25.8 µM | 22.8 | > 82.5 µM | 15.2 µM | > 82.5 | 27.8 µM | > 82.5 | 16.5 | 33.9 | 16.6 µM | > 82.5 µM | 19.3 µM | 66.2
O=C(Nc1ccc(Cl)c(Cl)c1)Nc1ccc(Cl)c([N+](=O)[O-])c1 | 2.17 µM | 5.51 | 1.1 µM | 4.23 | 1.2 µM | > 25 µM | 1.13 µM | 4.15 µM | 1.06 | 19 µM | 0.895 µM | 9.47 | 1.46 µM | 5.04 | 0.888 | 3.03 | 0.795 µM | 8.32 µM | 1.04 µM | 7.35
COc1ccc(C(=O)c2cc3c(N)c(C(=O)Nc4cccc(Cl)c4)sc3nc2C)cc1 | 0.995 µM | 3.2 | 1.67 µM | > 33.3 | 1.26 µM | > 33.3 µM | 1.12 µM | > 33.3 µM | 1.36 | > 33.3 µM | 1.19 µM | > 33.3 | 1.08 µM | > 33.3 | 1.12 | > 33.3 | 1.25 µM | > 33.3 µM | 2.06 µM | > 33.3
CCN1CCC(C(=O)Nc2n[nH]c3nnc(-c4cccc(F)c4F)cc23)CC1 | 3.98 µM | 18.3 | 10.4 µM | > 25 | 10.3 µM | 24.6 µM | 10.2 µM | > 25 µM | 8.39 | > 25 µM | > 25 µM | > 25 | 11.4 µM | > 25 | 7.96 | > 25 | 2.2 µM | > 12.8 µM | 16.9 µM | > 25
COc1ccc(C2SC(N)=Nc3c2c(C)nn3C(=O)c2ccncc2)cc1 (configuration not stated) |  | > 100 |  | > 100 |  | > 100 µM |  | > 100 µM |  | > 100 µM |  | > 100 |  | > 100 |  | > 100 |  | > 100 µM |  | > 100
COc1ccc(CCNc2nc3ccccc3c3[nH]c4ccccc4c23)cc1OC | 2.17 µM | 4.06 | 2.34 µM | 6.07 | 3.85 µM | 15.8 µM | 13 µM | 26.6 µM | 2.45 | 10.2 µM | 2.18 µM | 5.24 | 1.87 µM | 3.5 | 2.1 | 5.93 | 2.2 µM | 5.32 µM | 22.6 µM | 45.3
Cc1cc(O)c2c(c1)C[C@@H](O)C1=C2C(=O)c2c(O)ccc(OC3CC(O)C(OC4CC(OC5CCC(OC6CC(O)C(OC7CC(OC8CCC(O)C(C)O8)C(O)C(C)O7)C(C)O6)C(C)O5)C(O)C(C)O4)C(C)O3)c2C1=O (some centres not stated) | 0.391 µM and 1.31 µM |  | 0.362 µM and 0.216 µM |  | 2.03 µM and 1.37 µM | 0.492 µM and 3.45 µM and 2.69 µM | 0.237 µM and 0.315 µM | 0.134 µM and 0.658 µM and 1.18 µM | 0.144 | 0.267 µM and 0.457 µM | 0.321 µM and 0.483 µM |  | 0.822 µM and 1.28 µM |  |  | 0.485 | 0.394 µM and 0.921 µM | 0.599 µM and 1.69 µM and 2.32 µM | 1.7 µM and 1.37 µM | 
CCOC(=O)c1cc2c(n1Cc1cccc(OC)c1)-c1oncc1CC2 | 1.16 µM | 7.35 | 0.433 µM | > 100 | 2.27 µM | > 100 µM | 0.541 µM | > 100 µM | 0.343 | > 100 µM | 3.52 µM | > 100 | 0.432 µM | 35.3 | 0.511 | > 100 | 0.487 µM | > 100 µM | 9.1 µM | > 100
O=C(Cn1ccnc1[N+](=O)[O-])NCCO |  | > 100 |  | > 100 |  | > 100 µM |  | > 100 µM |  | > 100 µM |  | > 100 |  | > 100 |  | > 100 |  | > 100 µM |  | > 100
COc1c(O)c2ccccc2c2cc(O)ccc12 |  | 9.88 |  | 6.69 |  | 21 µM |  | 6.1 µM |  | 21.9 µM |  | 35.7 |  | 8.57 |  | 23.3 |  | 8.22 µM |  | 32.9
CCc1nc(N)nc(N)c1-c1ccc(Cl)cc1 | 9.43 µM | > 100 | 3.99 µM | > 100 | 13.2 µM | > 100 µM | 3.93 µM | > 100 µM |  | > 26.5 µM | 56.6 µM | > 100 |  | > 100 | 1.73 | > 100 | 15.3 µM | > 100 µM | 5.7 µM | > 100
CC/C=C/[C@@H]1C=C[C@@H]2CCC[C@H]2[C@@H]1CC[C@H](O)[C@H](C)N | 1.67 µM | 3.03 | 1.64 µM | 3 | 1.93 µM | 3.98 µM | 1.61 µM | 2.96 µM | 1.38 | 2.67 µM | 3.07 µM | 9.79 | 1.6 µM | 2.98 | 1.84 | 3.46 | 1.52 µM | 2.85 µM | 15.2 µM | 31.9
Cc1cc(Cl)n2c(nc3ccccc32)c1C#N | 0.576 µM | 7.86 | 0.055 µM | 1.79 | 0.339 µM | 1.2 µM | 1.14 µM | 3.66 µM | 0.256 | 61.3 µM | 0.231 µM | 2.45 | 0.395 µM | 2.04 | 0.6 | 8.9 | 0.158 µM | 2.3 µM | 7.84 µM | 24.8
COc1cc[c]([Hg][Cl])cc1 | 3.3 µM | 11.1 | 1.54 µM | 3.18 | 5.23 µM | 18.2 µM | 4.09 µM | 14.9 µM | 1.84 | 6.73 µM | 3.39 µM | 14.7 | 1.68 µM | 3.87 | 10.3 | 25.5 | 1.01 µM | 4.53 µM | 9.51 µM | 22.8
